Measured values from ChEMBL document CHEMBL1250509, “Rose Bengal analogs and vesicular glutamate transporters (VGLUTs)” (Bioorg Med Chem, 2010).

Tests used:
[1] = Inhibition of VGLUT in rat synaptic vesicles assessed as [3H]glutamate uptake pretreated for 30 mins measured after 10 mins by scintillation spectrophotometer analysis
[2] = Inhibition of VGLUT in rat synaptic vesicles assessed as [3H]glutamate uptake at 2.5 uM pretreated for 30 mins measured after 10 mins by scintillation spectrophotometer analysis
[3] = Inhibition of VMAT in rat synaptic vesicles assessed as [3H]HT uptake pretreated for 30 mins measured after 10 mins by scintillation spectrophotometer analysis
[4] = biological target: T1, Vesicular acetylcholine transporter (Rattus norvegicus, UniProt Q62666); assay: Inhibition of VACHT in rat synaptic vesicles assessed as […] 30 mins measured after 10 mins by scintillation spectrophotometer analysis
T1 sequence (Q62666 whole entry): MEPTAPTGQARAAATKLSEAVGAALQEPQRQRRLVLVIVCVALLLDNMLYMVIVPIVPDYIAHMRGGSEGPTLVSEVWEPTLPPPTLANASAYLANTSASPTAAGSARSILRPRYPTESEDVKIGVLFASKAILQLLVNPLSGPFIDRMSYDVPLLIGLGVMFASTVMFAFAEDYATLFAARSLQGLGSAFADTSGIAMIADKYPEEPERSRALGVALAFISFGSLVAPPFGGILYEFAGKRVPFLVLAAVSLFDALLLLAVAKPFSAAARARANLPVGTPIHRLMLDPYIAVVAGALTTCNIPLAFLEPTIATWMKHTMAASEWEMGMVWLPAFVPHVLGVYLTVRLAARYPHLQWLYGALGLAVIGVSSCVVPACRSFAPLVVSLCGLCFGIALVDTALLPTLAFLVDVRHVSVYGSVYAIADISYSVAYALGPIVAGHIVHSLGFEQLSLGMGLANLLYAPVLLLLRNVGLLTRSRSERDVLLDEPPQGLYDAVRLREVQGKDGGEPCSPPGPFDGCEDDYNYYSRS

[5] = Inhibition of VGLUT

IC50 [1]	SMILES	also measured
65 nM	O=C(OCc1ccccc1)c1c(Cl)c(Cl)c(Cl)c(Cl)c1-c1c2cc(I)c(=O)c(I)c-2oc2c(I)c(O)c(I)cc12	–
68 nM	O=c1c(I)cc2c(-c3cc(Cl)c(Cl)c(Cl)c3Cl)c3cc(I)c(O)c(I)c3oc-2c1I [DESCARBOXY RB]	–
8820 nM	COc1c(I)cc2c(c1I)Oc1c(cc(I)c(OC)c1I)C21OC(=O)c2c(Cl)c(Cl)c(Cl)c(Cl)c21	–
117 nM	COC(=O)c1ccccc1-c1c2cc(Br)c(=O)c(Br)c-2oc2c(Br)c(O)c(Br)cc12	–
–	O=C(O)c1c(Cl)c(Cl)c(Cl)c(Cl)c1-c1c2c3ccccc3c(=O)cc-2oc2cc(O)c3ccccc3c12	IC50 [2]: Not Active
15000 nM	O=C(O)c1c(Cl)c(Cl)c(Cl)c(Cl)c1-c1c2ccc(=O)cc-2oc2cc(O)ccc12	–
2200 nM	O=C(O)CCc1c2cc(I)c(=O)c(I)c-2oc2c(I)c(O)c(I)cc12	–
102 nM	O=C(O)c1c(F)c(F)c(F)c(F)c1-c1c2cc(I)c(=O)c(I)c-2oc2c(I)c(O)c(I)cc12	–
19 nM	O=C(O)c1c(Cl)c(Cl)c(Cl)c(Cl)c1-c1c2cc(I)c(=O)c(I)c-2oc2c(I)c(O)c(I)cc12 [ROSE BENGAL SODIUM]	IC50 [3]: 64 nM; IC50 [4]: 9700 nM; Ki [5]: 19 nM
531 nM	Cc1c2oc3c(C)c(O)c(I)cc3c(-c3ccccc3C(=O)O)c-2cc(I)c1=O	–
65 nM	CCOC(=O)c1ccccc1-c1c2cc(Br)c(=O)c(Br)c-2oc2c(Br)c(O)c(Br)cc12	–
1060 nM	O=C(O)c1ccccc1-c1c2ccc(=O)c(I)c-2oc2c(I)c(O)ccc12	–
689 nM	N#CSc1ccc(C(=O)O)c(-c2c3cc(I)c(=O)c(I)c-3oc3c(I)c(O)c(I)cc23)c1	–
192 nM	CCOC(=O)c1c(Cl)c(Cl)c(Cl)c(Cl)c1-c1c2cc(I)c(=O)c(I)c-2oc2c(I)c(O)c(I)cc12	–
6690 nM	O=C(O)c1cccc([N+](=O)[O-])c1-c1c2cc(I)c(=O)c(I)c-2oc2c(I)c(O)c(I)cc12	–
74 nM	O=C(O)c1c(Br)c(Br)c(Br)c(Br)c1-c1c2cc(I)c(=O)c(I)c-2oc2c(I)c(O)c(I)cc12	–
36 nM	O=C(O)c1ccccc1-c1c2cc(I)c(=O)c(I)c-2oc2c(I)c(O)c(I)cc12	–
–	N[C@]1(C(=O)O)CC[C@@H](C(=O)O)C1	IC50 [5]: 230000 nM
27 nM	O=C(O)c1c(Cl)ccc(Cl)c1-c1c2cc(I)c(=O)c(I)c-2oc2c(I)c(O)c(I)cc12	–
238 nM	COC(=O)c1ccccc1-c1c2cc([N+](=O)[O-])c(=O)c(Br)c-2oc2c(Br)c(O)c([N+](=O)[O-])cc12	–
–	O=C(O)c1c(Cl)c(Cl)c(Cl)c(Cl)c1-c1c2ccc(=O)cc-2oc2cc(O)c3ccccc3c12	IC50 [2]: Not Active
2440 nM	O=C(O)c1ccccc1-c1c2cc([N+](=O)[O-])c(=O)c(Br)c-2oc2c(Br)c(O)c([N+](=O)[O-])cc12 [EOSIN B]	–
7800 nM	O=C(O)c1c(O)cccc1-c1c2cc(I)c(=O)c(I)c-2oc2c(I)c(O)c(I)cc12	–
41 nM	O=C(O)c1cc(Cl)c(Cl)cc1-c1c2cc(I)c(=O)c(I)c-2oc2c(I)c(O)c(I)cc12	–
> 64000 nM	O=C(O)c1ccccc1-c1c2cc(Cl)c(=O)cc-2oc2cc(O)c(Cl)cc12	–
44 nM	COC(=O)c1c(Cl)c(Cl)c(Cl)c(Cl)c1-c1c2cc(I)c(=O)c(I)c-2oc2c(I)c(O)c(I)cc12	–
> 32000 nM	O=c1ccc2c(-c3ccccc3S(=O)(=O)O)c3ccc(O)c(O)c3oc-2c1O [PYROGALLOL RED]	–
–	O=C1OC2(c3ccc(O)cc3Oc3cc(O)ccc32)c2ccccc21 [FLUORESCEIN]	IC50 [2]: Not Active
–	O=C(O)c1cc(C(=O)O)c2cc(-c3ccc(-c4ccccc4)cc3)cc(O)c2n1 [QUINOLEIN DICARBOXYLIC ACID]	IC50 [5]: 40000 nM

SMILES	IC50 [1]	also measured
O=C(O)c1ccccc1-c1c2cc(Br)c(=O)c(Br)c-2oc2c(Br)c(O)c(Br)cc12	406 nM	–
O=C(O)c1c(Cl)c(Cl)c(Cl)c(Cl)c1-c1c2cc(Br)c(=O)c(Br)c-2oc2c(Br)c(O)c(Br)cc12	51 nM	–
